ChEMBL document CHEMBL1122948, “3,4-Diphenyl-1H-pyrazole-1-propanamine antidepressants” (J Med Chem, 1985)

Tests used:
Format in all cases: functional
Mus musculus [1] = assay: Prevention of reserpine-induced ptosis in the mouse after peroral administration
Rattus norvegicus [2] = species: Rattus norvegicus; assay: In vitro inhibitory activity against [3H]-5-HT uptake into crude synaptosomes from whole rat brain.
Mus musculus [3] = assay: Effect on tetrabenazine-induced suppression of locomotor activity in the mouse after peroral administration
Rattus norvegicus [4] = species: Rattus norvegicus; assay: In vitro inhibitory activity against [3H]5-HT uptake into crude synaptosomes from whole rat brain.

IC50 (Rattus norvegicus [2]): 3100 nM
IC50 (Rattus norvegicus [4]): 240 nM
Compound: CN(C)CCCN1c2ccccc2CCc2ccccc21 [IMIPRAMINE]
MED (Mus musculus [1]): 4 (mg of base) kg-1
MED (Mus musculus [3]): 4 (mg of base) kg-1
